Data set [1] is described as follows: Human liver microsomal stability/clearance. In kind it is in vitro ADME. As to the method:
(§1) Human and mouse liver microsomal clearance assays were carried out in CROWN Biosciences (Taicang, China). The human liver microsomes (Cat No. X008067, Lot No. KQB) and mouse liver microsomes (Cat No. M1000, Lot No. 1210302) were purchased from Celsis and Xenotech, respectively.
(§2) 5 μL of test compound stock solution was diluted with 495 μL of 1:1 Methanol/Water (final concentration: 100 μM, 50% MeOH) and combined with 534 μL of the respective liver microsome solution (final concentration: 1.111 μM, 0.555% MeOH). The final concentration of the liver microsome solution was 0.7 mg protein/mL.
(§3) Incubations of the liver microsome solutions were performed in a 96 well plate at 37° C. 90 μL of the liver microsome solutions were added to Blank, and 90 μL of working solution of the test compound was added to all plates except the Blank.
(§4) All plates thus obtained were warmed in water bath at 37° C. for 10 min, and 10 μL of NADPH co-factor solution comprising 42 mg of β-nicotinamide adenine dinucleotide phosphate (Sigma Cat. No. N0505 Lot 020M7009V), 84 mg of isocitric acid (Sigma Cat. No. 11252 Lot 119K1099) and 0.478 mL of isocitric dehydrogenase (Sigma Cat. No. 12002 Lot 086K7055, 15 units/mg protein, warmed in water bath at 37° C. for 5 min was added to the plates. The resulting plates were incubated at 37° C. in the following order: T60 (The test compounds were incubated with the liver microsomal solution and NADPH for 60 min at 37° C.), T30 (such as for 30 min.), and T10 (such as for 10 min.). 300 μL of a cold (4° C.) stop solution (acetonitrile (ACN) including 500 nM of tolbutamide as internal standard) and 10 μL of NADPH co-factor solution to starting plate (T0: 100% of the parent compound without any reaction) were added to the plates. The reaction was stopped by adding 300 μL of the cold (4° C.) stop solution to the other plates in the following order: T10 first, then T30 and T60.
(§5) The samples were centrifuged at 4,000 rpm for 20 min and transferred to Bioanalytical Services for liquid chromatography-mass spectrometry (LC-MS)/MS (Waters UPLC/API 4000, 10 μL injection) analysis.
(Microsomes from liver hold many membrane-bound enzymes, among them those of drug oxidation.)

The nature of data set [2]: Mouse liver microsomal stability/clearance. The class given is in vitro ADME. How it is done: as §1, §2, §3, §4, §5
Another data set concerns the target human BRD4 bromodomain 1 (Homo sapiens (Human), UniProt O60885). The experiment in a line: Bromodomain binding assay (BRD4 Alpha-screen). As to conditions: acetylated histone H4 peptide. How it is done:
Bromodomain binding assays were carried out in Reaction Biology (PA, USA) to test the degrees of the inventive compounds in inhibiting the human BRD4 bromodomain 1 by Alpha-screen assay method.
Recombinant human BRD4 bromodomain 1 expressed in E. coli with N-terminal His-tag was used as the enzyme target.
A synthetic peptide ([…]-GSGSK-biotin) containing 1 to 21th amino acids of histone H4 acetylated at lysine 5, 8, 12 and 16 and conjugated to biotin was purchased from Millipore.
BRD4-1 (44 to 170th amino acids; Genbank Accession # NM_058243) was expressed in E. coli with N-terminal His-tag (see, Ni-NTA spin Kit Handbook (Qiagen), second edition, January, 2008). Nickel-Chelate ALPHA acceptor beads (Perkin Elmer) were used to specifically bind BRD4-1, and ALPHA streptavidin donor beads (Perkin Elmer) were used because they specifically recognized the biotinylated H4 peptide.
BRD binding assays were performed in a mixture comprising 50 mM Hepes (pH7.5), 100 mM NaCl, 0.05% CHAPS, 0.1% BSA, and 1% DMSO. After an assay reaction time of 60 min at 25° C., binding was measured with streptavidin donor beads and nickel-chelate acceptor beads. ALPHA signal was detected on Enspire (Ex/Em=680/520-620 nm). IC50 values were calculated from the fit of the dose-response curves. All IC50 values represent geometric mean values of a minimum of four determinations. These assays generally produced results within 3-fold of the reported mean.
For orientation: In Alpha technology, singlet oxygen from a donor bead excites a nearby acceptor bead.

The structures appear in SMILES notation.

As for `Cc1sc2c(c1C)C(c1ccc(Cl)cc1)=N[C@@H](COS(=O)(=O)N(C)C)c1nnc(C)n1-2` [Compound 17, (R)-(4-(4-chlorophenyl)-2,3,9-trimethyl-6H-thieno[3,2-f][1,2,4]triazolo[4,3-a][1,4]diazepin-6-yl)methyl dimethylsulfamate], the microsomal CLint at 1 µM worked out at 171 µL/min/mg in data set [1] (human, microsomes) and 138 µL/min/mg in data set [2] (mouse, microsomes). At human BRD4 bromodomain 1, the IC50 was determined as 900 nM.

For `Cc1sc2c(c1C)C(c1ccc(Cl)cc1)=N[C@@H](COS(N)(=O)=O)c1nnc(C)n1-2` [Compound 16, (R)-(4-(4-chlorophenyl)-2,3,9-trimethyl-6H-thieno[3,2-f][1,2,4]triazolo[4,3-a][1,4]diazepin-6-yl)methyl sulfamate], the microsomal CLint at 1 µM in data set [1] (human, microsomes) was determined as 10 µL/min/mg; in data set [2] (mouse, microsomes) it was 9 µL/min/mg. The molecule also displayed an IC50 on human BRD4 bromodomain 1 of 250 nM.

For `COc1ccc2c(c1)C(c1ccc(Cl)cc1)=N[C@@H](COS(=O)(=O)c1ccccc1)c1nnc(C)n1-2` [Compound 5, (R)-(6-(4-chlorophenyl)-8-methoxy-1-methyl-4H-benzo[f][1,2,4]triazolo[4,3-a][1,4]diazepin-4-yl)methyl benzenesulfonate], the IC50 on human BRD4 bromodomain 1 came to 900 nM.

Regarding `Cc1nnc2n1-c1ccc(C(=O)NCCO)cc1C(c1ccc(Cl)cc1)=N[C@H]2COS(C)(=O)=O` [Compound 14, (R)-(6-(4-chlorophenyl)-8-((2-hydroxyethyl)carbamoyl)-1-methyl-4H-benzo[f][1,2,4]triazolo[4,3-a][1,4]diazepin-4-yl)methyl methanesulfonate], the microsomal CLint at 1 µM in data set [1] (human liver microsomes, first value of Human/Mouse cell, read-out: Liver microsomal clearance (Human)) turned out to be 8.3 µL/min/mg; in data set [2] (mouse liver microsomes, second value of Human/Mouse cell, read-out: Liver microsomal clearance (Mouse)) it was 6.3 µL/min/mg. In addition, the IC50 on human BRD4 bromodomain 1 turned out to be 380 nM.

As to `CNS(=O)(=O)OC[C@@H]1N=C(c2ccc(Cl)cc2)c2c(sc(C)c2C)-n2c(C)nnc21` [Compound 18, (R)-(4-(4-chlorophenyl)-2,3,9-trimethyl-6H-thieno[3,2-f][1,2,4]triazolo[4,3-a][1,4]diazepin-6-yl)methyl methylsulfamate], the microsomal CLint at 1 µM worked out at 51 µL/min/mg in data set [1] (human, microsomes) and 49 µL/min/mg in data set [2] (mouse, microsomes). Moreover, the IC50 on human BRD4 bromodomain 1 was 160 nM.

As for `Cc1nnc2n1-c1ccccc1C(c1ccc(Cl)cc1)=N[C@H]2COS(C)(=O)=O` [Compound 6, (R)-(6-(4-chlorophenyl)-1-methyl-4H-benzo[f][1,2,4]triazolo[4,3-a][1,4]diazepin-4-yl)methyl methanesulfonate], on human BRD4 bromodomain 1, the IC50 was determined as 1410 nM.

The IC50 is the concentration that gives 50% inhibition. A high value points to weaker potency.

(Values after US9884874B2, “Bromodomain-inhibiting compounds and pharmaceutical composition comprising same for preventing or treating a cancer” (KAINOS MEDICINE, INC., priority 2014, dated 2018).)
